# Data as given in patent US5863905A, “2',5'-phosphorothioate/phosphodiester oligoadenylates and anti-viral uses thereof” (Temple University-Of The Commonwealth System of Higher …, priority 1997, dated 1999).
# Where “and” joins values, the source holds several entries; their conditions need not be identical. Equal values may be shown once. Entries after “also recorded” stand apart in the source; their conditions may differ.
# Columns and labels:
# HIV-1 strain IIIB = experiment: Inhibition of HIV-1-induced syncytia formation (infected centers assay); format: cell-based; settings: for inhibition of syncytia formation (in words): 3×10^-4 M (adenosine 9×10^-4 M); for inhibition of HIV-1-induced syncytia formation: 3×10^-4 M, PBL infected with HIV-1 IIIB, Sup T1 cells, read at 72 h
# Text: FIG. 5A represents the results of an assay performed according to the method of Henderson et al., Virology 182: 186-198 (1991), indicating the inhibition of HIV-1 (IIIB)-induced syncytia formation by adenosine, 2-5A trimer or tetramer core or 2',5'- phosphorothioate/phosphodiester trimer derivatives: ARp *ApA, ASp *ApA, ApARp *A, ApASp *A, ARp *ApApA, ASp *ApApA, ApARp *ApA, ApASp *ApA, ApApARp *A, ApApASp *A.
# FIG. 5B is the results of an assay performed according to the method of FIG. 5A with a 2',5'-phosphorothioate/phosphodiester tetramer derivative of 2-5A core.
# The infected centers assay as described by Henderson et al., Virology 182: 186-198 (1991), was used to measure the ability of the phosphorothioate/phosphodiester derivatives of 2-5A trimer and tetramer cores to inhibit HIV-1 induced syncytia formation, an indicator of HIV-1 replication in T cells. Freshly isolated peripheral blood lymphocytes (PBL) were treated with 2-5A or derivatives for 2 h and infected with HIV-1 strain IIIB at a m.o.i. of approximately 0.1. The infected PEL were maintained in RPMI-1640 medium supplemented with 10% (v/v) heat-inactivated fetal calf serum at 37° C. in a humidified 5% CO2 in air atmosphere. After 48 h, the cells were washed twice in Hank's balaned salt solution, serially diluted and seeded into multiple wells of a 96-well microtiter plate. Immediately, 2×10^5 exponentially growing Sup T1 cells were added to each well; Sup T1 cells readily form a syncytium with a cell which is productively infected with HIV-1. The wells were examined daily for the presence of syncytia, using a tissue culture microscope. The first signs of syncytia formation can be seen in 12 h, with some complete syncytia developing by 24 h. Final results were read at 72 h. Each syncytium was counted as a single infected cell. The number of syncytia per seeded cell is determined and expressed as an infected center per infected cell. In the control (no 2-5A derivative added), 100% syncytia formation was equivalent to 12±3 syncytia per 200 HIV-1 infected cells.
# RNase L = experiment: rRNA cleavage assay in L929 cell extracts (activation of RNase L); format: biochemical; settings: 1 h at 30° C., > = no activation up to this concentration
# Method: FIG. 2A represents the results of a ribosomal RNA cleavage assay with 2',5'-phosphorothioate/phosphodiester trimer core 2-5A derivatives. The procedure was performed according to the method of Kariko et al., Biochemistry 26: 7127-7135 (1987). 2-5A oligomer (phosphodiester internucleotide linkage) is also included for comparison. L929 cell extracts were incubated in the absence (lane 1) or presence of p3 A3 at 10^-8 M (lane 2), ARp *ApA at 10^-6 M (lane 3), ASp *ApA at 10^-6 M (lane 4), ApARp *A at 10^-6 M (lane 5), ApASp *A at 10^-6 M (lane 6) or A3 at 10^-6 M (lane 7). The positions of 28S and 18S rRNA are shown; the arrows indicate the positions of the well-characterized specific cleavage products (SCP) of RNase L.
# FIG. 2B represents the results of a ribosomal RNA cleavage assay performed according to the method of FIG. 2A with 2',5'-phosphorothioate/phosphodiester trimer 5'-monophosphate derivatives. L929 cell extracts were incubated in the absence (lane 1) or presence of p3 A3 at 2×10^-9 M (lane 2), pA3 at 10^-6 M (lane 3), pARp *ApA at 10^-7 M (lane 4), pASp *ApA at 10^-7 M (lane 5), pApARp *A at 2×10^-9 M (Lane 6), pApASp *A at 10^-7 M (lane 7).
# FIG. 3A represents the results of a ribosomal RNA cleavage assay performed according to the method of FIG. 2A with 2',5'-phosphorothioate/phosphodiester tetramer core 2-5A derivatives. 2-5A oligomer (phosphodiester internucleotide linkage) is also included for comparison. L929 cell extracts were incubated in the absence (lane 1) or presence of p3 A4 at 10^-8 M (lane 2), A4 at 10^-5 M (lane 3), ARp *ApApA at 10^-5 M (lane 4), ASp *ApApA at 10^-5 M (lane 5), ApARp *ApA at 10^-5 M (lane 6), ApASp *ApA at 10^-5 M (lane 7), ApApARp *A at 10^-5 M (lane 8) or ApApASp *A at 10^-5 M (lane 9).
# FIG. 3B represents the results of a ribosomal RNA cleavage assay performed according to the method of FIG. 2A with 2',5'-phosphorothioate/phosphodiester tetramer 5'-monophosphate derivatives. L929 cell extracts were incubated in the absence (lane 1) or presence of p3 A4 at 10^-8 M (lane 2), pA4 at 10^-6 M (lane 3), pARp *ApApA at 10^-6 M (lane 4), pASp *ApApA at 10^-6 M (lane 5), pApARp *ApA at 10^-8 M (lane 6), pApASp *ApA at 10^-5 M (lane 7), pApApARp *A at 10^-7 M (lane 8) or pApApASp *A at 10^-7 M (lane 9).
# Activation of RNase L by the phosphorothioate/phosphodiester trimer and tetramer 2-5A derivatives was also measured in a rRNA cleavage assay using L929 cell extracts according to the method of Kariko et al. (1987), supra, in which extracts of L929 cells were incubated for 1 h at 30° C. in the presence or absence of 2-5A or 2-5A derivative. […] Authentic p3 A3 was active at 1×10^-8 M (FIG. 2A, lane 2). The corresponding 5'-monophosphates, pARp *ApA, pASp *ApA and pApARp *A, activated at 1×10^-7 M, 1×10^-7 M, and 2×10^-9 M, respectively (FIG. 2B, lanes 4-6), as compared with pA3 which was active at 1×10^-6 M (lane 3).
# [1] = test system: HIV-1 reverse transcriptase; experiment: HIV-1 reverse transcriptase activity in culture supernatant of infected Sup T1 cells; format: cell-based; settings: for Percent Inhibition of HIV-1 Reverse Transcriptase: 300 μM (adenosine and adenine 900 μM), 6 h pre-treatment, 96 h post-infection, average of triplicates
# Method: Sup T1 cells were treated with 2-5A or a phosphorothioate/phosphodiester derivative at 300 μM for 6 hours and then infected with HIV-1 at a multiplicity of infection (M.O.I) of approximately 0.1. Adenosine and adenine were tested at 900 μM. At 96 hours post-infection, culture supernatant was removed and HIV-1 RT activity was assayed in triplicate as described by Henderson et al., Virology 182:186-198 (1991). Briefly in this method, 25 μl of culture supernatant was added to a 50 μl cocktail containing 50 mM Tris (pH 8.0), 20 mM dithiothreitol, 10 mM MgCl2, 60 mM NaCl, 0.05 Nonidet p-40, 5 μg/ml oligodeoxythymidylic acid, 10 μg/ml polyriboadenylic acid, 10 μM deoxythymidine triphosphate and 1 mCi [^32 p]thymidine 5'-triphosphate. The mixture was incubated at 37° C. for 2 hours. Fifty microliters of the cocktail were then spotted onto diethylaminoethyl (DEAE) paper, dried, washed with 2× SSC solution (three times for 10 minutes each time) and 95% ethanol (two times for 5 minutes each time), dried and exposed to radiographic film for 18 to 24 hours at -80° C. The filters were cut and final quantitation was determined by scintillation spectrometry.
# serum phosphodiesterases = experiment: Stability of 2-5A core derivatives to serum phosphodiesterase; format: in vitro ADME, fetal calf; settings: for Hydrolysis Products / % Hydrolysis: 300 μM, 37° C.; for Hydrolysis Products: 10% fetal calf serum, 6 h, identified by HPLC; for % Hydrolysis: RPMI-1640 + 10% fetal calf serum, 6 h (A2, A3: 20 min); for hydrolysis (in words): serum-containing medium
# Method: The stability of authentic 2-5A and phosphorothioate/phosphodiester trimer and tetramer core derivatives (300 μM) was determined by incubation in 200 μL of RPMI-1640 medium supplemented with 10% fetal calf serum in 5% CO2 -in-air at 37° C. Aliquots (30 μL) were removed at time zero and 6 hours. The hydrolysis products were identified by HPLC as described in Kariko et al. , Biochemistry 26: 7127-7135 (1987).
# No hydrolysis of the phosphorothioate/phosphodiester trimer core derivatives was observed. However, the phosphorothioate/phosphodiester tetramer core derivatives were hydrolyzed from the 5'- or 2',3'-terminus, depending on the location of the phosphorothioate-substituted internucleotide linkage.
Molecule,inhibition of syncytia formation (in words) (HIV-1 strain IIIB),inhibition of HIV-1-induced syncytia formation (HIV-1 strain IIIB),concentration at which RNase L is activated to cleave rRNA to SCP (RNase L),Percent Inhibition of HIV-1 Reverse Transcriptase [1],Hydrolysis Products (serum phosphodiesterases),% Hydrolysis (serum phosphodiesterases),hydrolysis (in words) (serum phosphodiesterases),inhibition of HIV-1 RT activity (in words) [1],inhibition of syncytia formation (in words) (HIV-1 strain IIIB; listed as Adenosine)
"Nc1ncnc2c1ncn2[C@@H]1O[C@H](CO[P@@](O)(=S)O[C@@H]2[C@H](O)[C@@H](COP(=O)(O)O[C@@H]3[C@H](O)[C@@H](COP(=O)(O)O[C@@H]4[C@H](O)[C@@H](CO)O[C@H]4n4cnc5c(N)ncnc54)O[C@H]3n3cnc4c(N)ncnc43)O[C@H]2n2cnc3c(N)ncnc32)[C@@H](O)[C@H]1O [ApApARp *A, Adenylyl-(2'-5')-adenylyl-(2'-5')-(PR)-P-thioadenylyl-(2'-5')-adenosine]",most efficient inhibitors,90%,10 µM,38%,"inosine, hypoxanthine; also recorded: ApARp *A",30%,degraded from the 5'-terminus; also recorded: hydrolyzed from the 5'-terminus,–,–
"Nc1ncnc2nc[nH]c12 [adenine, reference compound]",not able to inhibit syncytia formation,–,–,4%,–,–,–,did not inhibit HIV-1 RT activity,–
"Nc1ncnc2c1ncn2[C@@H]1O[C@H](CO)[C@@H](O)[C@H]1O [adenosine, reference compound]",did not inhibit syncytia formation,–,–,0%,–,–,–,did not inhibit HIV-1 RT activity,not able to inhibit syncytia formation
"(PR)-P-thioadenylyl-(2',5')-adenylyl-(2',5')-adenosine [ARp *ApA]",–,10%,> 1 µM,32%,not hydrolyzed,0%,–,–,–
"(PR)-P-thioadenylyl-(2',5')-adenylyl-(2',5')-adenylyl-(2',5')-adenosine [ARp *ApApA]",–,16%,–,57%,"inosine, hypoxanthine; also recorded: ARp *A",50% and 100%,"rapidly hydrolyzed from the 2',3'-terminus",–,–
"(PS)-P-thioadenylyl-(2',5')-adenylyl-(2',5')-adenosine [ASp *ApA]",–,15%,> 1 µM,56%,not hydrolyzed,0%,–,–,–
"(PS)-P-thioadenylyl-(2',5')-adenylyl-(2',5')-adenylyl-(2',5')-adenosine [ASp *ApApA]",–,18%,–,54%,"inosine, hypoxanthine; also recorded: ASp *A",50% and 100%,"rapidly hydrolyzed from the 2',3'-terminus",–,–
"Adenylyl-(2',5')-(PR) -P-thioadenylyl-(2',5')-adenylyl-(2',5')-adenosine [ApARp *ApA]",–,26%,10 µM,52%,"inosine, hypoxanthine; also recorded: ARp *ApA",50%,–,–,–
"Adenylyl-(2',5')-(PS)-P-thioadenylyl-(2',5')-adenylyl-(2',5')-adenosine [ApASp *ApA]",–,32%,–,42%,"inosine, hypoxanthine; also recorded: ASp *ApA",50%,–,–,–
"Adenylyl-(2',5')-adenylyl-(2',5')-(PS)-P-thioadenylyl-(2',5')-adenosine [ApApASp *A]",most efficient inhibitors,76%,–,62%,"inosine, hypoxanthine; also recorded: ApASp *A",33%,degraded from the 5'-terminus; also recorded: hydrolyzed from the 5'-terminus,–,–
